The target in one data set is T1, human VR1 receptors (Homo sapiens, UniProt Q8NER1).
T1 construct: host or cells: cells highly expressing human VR1; cell type not specified
The data set can be described thus: Human VR1 antagonist assay (Ca2+ imaging). The format is cell-based. As to conditions: cells expressing human VR1, fura-2 Ca2+ imaging, FDSS 6000; capsaicin (300 nM) or acid (pH5.8) stimulation, table does not say which. The text has this: Human VR1 Antagonist Assay
VR1 antagonistic activity can be determined by the Ca^2+ imaging assay using human VR1 highly expressing cells. The cells that highly express human VR1 receptors are obtainable from several different conventional methods. The one standard method is cloning from human Dorsal Root Ganglion (DRG) or kidney according to the methods such as described in the journal article; Nature, 389, pp 816-824, 1997. Alternatively VR1 receptors highly expressing human keratinocytes are also known and published in the journal article (Biochemical and Biophysical Research Communications, 291, pp 124-129, 2002). […] Further more, the method to up regulate human VR1 gene, which is usually a silent gene or don't produce detectable level of VR1 receptors, is also available to obtain propriety cells. Such genetic modification method was described in detail; Nat. Biotechnol., 19, pp 440-445, 2001.
The cells that express human VR1 receptors were maintained in culture flask at 37° C. in an environment containing 5% CO2 until use in the assay. The intracellular Ca^2+ imaging assay to determine VR1 antagonistic activities were done by following procedures.
The culture medium was removed from the flask and fura-2/AM fluorescent calcium indicator was added to the flask at a concentration of 5 μM in the medium. The flask was placed in CO2 incubator and incubated for 1 hour. Then the cells expressing the human VR1 receptors were detached from the flask follow by washing with phosphate buffer saline, PBS(−) and re-suspended in assay buffer. The 80 μl of aliquot of cell suspension (3.75×10^5 cells/ml) was added to the assay plate and the cells were spun down by centrifuge (950 rpm, 20° C., 3 minutes).
Capsaicin Stimulation Assay:
The capsaicin-induced changes in the intracellular calcium concentration were monitored using FDSS 6000 (Hamamatsu Photonics, Japan), a fluorometric imaging system. The cell suspension in Krebs-Ringer HEPES (KRH) buffer (115 mM NaCl, 5.4 mM KCl, 1 mM MgSO4, 1.8 mM CaCl2, 11 mM D-Glucose, 25 mM HEPES, 0.96 mM Na2HPO4, pH 7.3) were pre-incubated with varying concentrations of the test compounds or KRH buffer (buffer control) for 15 minutes at room temperature under the dark condition. Then capsaicin solution, which gives 300 nM in assay mixture, was automatically added to the assay plate by the FDSS 6000.
The Acid-induced changes in the intracellular calcium concentration were monitored using FDSS 6000 (Hamamatsu Photonics, Japan), a fluorometric imaging system. The cell suspension in resting buffer (HBSS supplemented with 10 mM HEPES, pH 7.4) were pre-incubated with varying concentrations of the test compounds or resting buffer (buffer control) for 15 minutes at room temperature under the dark condition. The cells were automatically added the stimulating solution (HBSS supplemented with MES, final assay buffer pH5.8) by the FDSS 6000.
Determination of Antagonist Activity
The monitoring of the changes in the fluorescence signals (λex=340 nm/380 nm, λem=510-520 nm) was initiated at 1 minute prior to the addition of capsaicin solution or acidic buffer and continued for 5 minute.

The nature of data set [1]: Half-life in Human Liver Microsomes (HLM). As to conditions: human, human liver microsomes (HL101), pH 7.4.
Protocol: Test compounds (1 μM) were incubated with 3.3 mM MgCl2 and 0.78 mg/mL HLM (HL101) in 100 mM potassium phosphate buffer (pH 7.4) at 37° C. on the 96-deep well plate. The reaction mixture was split into two groups, a non-P450 and a P450 group. NADPH was only added to the reaction mixture of the P450 group. An aliquot of samples of P450 group was collected at 0, 10, 30, and 60 min time point, where 0 min time point indicated the time when NADPH was added into the reaction mixture of P450 group. An aliquot of samples of non-P450 group was collected at −10 and 65 min time point. Collected aliquots were extracted with acetonitrile solution containing an internal standard. The precipitated protein was spun down in centrifuge (2000 rpm, 15 min). The compound concentration in supernatant was measured by LC/MS/MS system.
The half-life value was obtained by plotting the natural logarithm of the peak area ratio of compounds/internal standard versus time. The slope of the line of best fit through the points yields the rate of metabolism (k).

T1 sequence (Q8NER1 whole entry): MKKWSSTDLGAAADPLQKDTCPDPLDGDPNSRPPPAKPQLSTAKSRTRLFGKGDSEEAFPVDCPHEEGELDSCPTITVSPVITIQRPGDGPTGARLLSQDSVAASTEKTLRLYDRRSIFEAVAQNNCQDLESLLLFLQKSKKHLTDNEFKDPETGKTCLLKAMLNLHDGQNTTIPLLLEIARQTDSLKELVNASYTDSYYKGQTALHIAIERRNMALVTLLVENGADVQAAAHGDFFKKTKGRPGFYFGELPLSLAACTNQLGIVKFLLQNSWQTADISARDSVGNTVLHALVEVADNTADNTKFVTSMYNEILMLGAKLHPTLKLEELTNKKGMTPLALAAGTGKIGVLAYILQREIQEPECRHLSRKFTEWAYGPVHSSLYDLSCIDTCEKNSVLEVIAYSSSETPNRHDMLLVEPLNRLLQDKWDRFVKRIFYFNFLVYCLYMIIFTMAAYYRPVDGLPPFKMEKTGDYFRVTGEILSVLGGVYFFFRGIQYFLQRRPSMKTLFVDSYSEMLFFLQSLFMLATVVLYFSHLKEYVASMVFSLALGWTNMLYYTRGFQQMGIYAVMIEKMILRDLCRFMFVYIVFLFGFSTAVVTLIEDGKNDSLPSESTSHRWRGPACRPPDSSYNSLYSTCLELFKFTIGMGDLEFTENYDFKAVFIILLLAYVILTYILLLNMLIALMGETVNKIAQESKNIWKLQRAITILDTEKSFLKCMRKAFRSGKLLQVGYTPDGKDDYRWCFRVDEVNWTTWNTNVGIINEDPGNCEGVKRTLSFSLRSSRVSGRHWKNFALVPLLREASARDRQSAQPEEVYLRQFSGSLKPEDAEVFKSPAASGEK

On to `Cc1cc([C@@H](C)NC(=O)C2CC2(C)c2ccc(OC(F)(F)F)cc2)ccc1NS(C)(=O)=O` (stereo partly drawn) [Example 16, 2-Methyl-N-((1R)-1-{3-methyl-4-[(methylsulfonyl)amino]phenyl}ethyl)-2-[4-(trifluoromethoxy)phenyl]cyclopropanecarboxamide], for which, at human VR1 receptors, it took 6.59 nM to reach half-maximal inhibition (IC50). In data set [1], this molecule yielded a half-life at 1 μM of 53 min.

On human VR1 receptors, `C[C@@H](NC(=O)[C@H]1C[C@]1(C)c1ccc(C(F)(F)F)cc1)c1ccc(NS(C)(=O)=O)c(F)c1` [Example 23, (1S,2S)-N-((1R)-1-{3-Fluoro-4-[(methylsulfonyl)amino]phenyl}ethyl)-2-methyl-2-[4-(trifluoromethyl)phenyl]cyclopropanecarboxamide] showed an IC50 of 10.9 nM. This molecule returned a half-life at 1 μM in data set [1] of more than 120 min.

`C[C@@H](NC(=O)[C@H]1C[C@]1(C)c1cc(F)c(C(C)(C)C)c(F)c1)c1ccc(NS(C)(=O)=O)c(F)c1` [Example 45, 2-(4-tert-Butyl-3,5-difluorophenyl)-N-((1R)-1-{3-fluoro-4-[(methylsulfonyl)amino]phenyl}ethyl)-2-methylcyclopropanecarboxamide]: the IC50 on human VR1 receptors came out at 5.84 nM. Moreover, in data set [1], the half-life at 1 μM came out at 29 min.

Take `CCc1cc([C@@H](C)NC(=O)C2CC2(C)c2ccc(OC(F)(F)F)cc2)ccc1NS(C)(=O)=O` (mixture of isomers) [Example 29, N-((1R)-1-{3-Ethyl-4-[(methylsulfonyl)amino]phenyl}ethyl)-2-methyl-2-{4-[(trifluoromethyl)oxy]phenyl}cyclopropanecarboxamide]: at human VR1 receptors, the IC50 amounted to 17.9 nM. Moreover, the half-life at 1 μM in data set [1] worked out at 19 min.

In turn, `Cc1cc([C@@H](C)NC(=O)C2CC2(C)c2ccc(C(F)(F)F)nc2)ccc1NS(C)(=O)=O` (stereo partly drawn) [Example 12, 2-Methyl-N-((1R)-1-{3-methyl-4-[(methylsulfonyl)amino]phenyl}ethyl)-2-[6-(trifluoromethyl)pyridin-3-yl]cyclopropanecarboxamide] yielded an IC50 on human VR1 receptors of 27 nM. In data set [1], this molecule displayed a half-life at 1 μM of 83 min.

The molecule `CCc1cc([C@@H](C)NC(=O)C2CC2(C)c2cc(F)c(C(C)(C)C(F)(F)F)c(F)c2)ccc1NS(C)(=O)=O` (single isomer, unassigned) [Example 72] yielded an IC50 at human VR1 receptors of 8.5 nM. The molecule also gave a half-life at 1 μM in data set [1] of 52.6 min.

Take `Cc1cc(CNC(=O)C2CC2(C)c2ccc(C(C)(C)C)cc2)ccc1NS(C)(=O)=O` (centres unmarked) [Example 5, 2-(4-tert-Butylphenyl)-2-methyl-N-{3-methyl-4-[(methylsulfonyl)amino]benzyl}cyclopropanecarboxamide]: on human VR1 receptors, inhibition was half-maximal at 40 nM (IC50). In data set [1], this molecule yielded a half-life at 1 μM of 5 min.

In turn, `CCc1cc([C@@H](C)NC(=O)[C@H]2C[C@@H]2c2ccc(C(F)(F)F)cc2)ccc1NS(C)(=O)=O` [Example 33, N-((1R)-1-{3-Ethyl-4-[(methylsulfonyl)amino]phenyl}ethyl)-2-[4-(trifluoromethyl)phenyl]cyclopropanecarboxamide] returned an IC50 at human VR1 receptors of 56.2 nM. Further, the half-life at 1 μM in data set [1] came out at 39 min.

In turn, `C[C@@H](NC(=O)C1CC1c1ccc(C(C)(C)C)cc1)c1ccc(NS(C)(=O)=O)c(F)c1` (stereo partly drawn) [Example 8, 2-(4-tert-Butylphenyl)-N-((1R)-1-{3-fluoro-4-[(methylsulfonyl)amino]phenyl}ethyl)cyclopropanecarboxamide] registered an IC50 on human VR1 receptors of 38 nM. In data set [1], this molecule had a half-life at 1 μM of 37 min.

Molecule `C[C@@H](NC(=O)C1CC1c1ccc(C(C)(C)C(F)(F)F)cc1)c1ccc(NS(C)(=O)=O)c(F)c1` (stereo partly drawn) [Example 18, N-((1R)-1-{3-Fluoro-4-[(methylsulfonyl)amino]phenyl}ethyl)-2-[4-(2,2,2-trifluoro-1,1-dimethylethyl)phenyl]cyclopropanecarboxamide] displayed an IC50 against human VR1 receptors of 282 nM. Further, in data set [1], the half-life at 1 μM was determined as 119 min.

On human VR1 receptors, `Cc1cc([C@@H](C)NC(=O)C2CC2c2cc(F)c(C(C)(C)C(F)(F)F)c(F)c2)ccc1NS(C)(=O)=O` (single isomer, unassigned) [Example 30] showed an IC50 of 138 nM. In addition, the half-life at 1 μM in data set [1] came out at 32 min.

In turn, `Cc1nc([C@@H](C)NC(=O)C2CC2c2ccc(C(F)(F)F)cc2)ccc1NS(C)(=O)=O` (single isomer, unassigned) [Example 56] displayed an IC50 at human VR1 receptors of 1250 nM. The half-life at 1 μM in data set [1] was more than 120 min.

On human VR1 receptors, `Cc1cc([C@@H](C)NC(=O)C2CC2(C)c2ccc(S(=O)(=O)C(F)(F)F)cc2)ccc1NS(C)(=O)=O` (stereo partly drawn) [Example 26, 2-Methyl-N-((1R)-1-{3-methyl-4-[(methylsulfonyl)amino]phenyl}ethyl)-2-{4-[(trifluoromethyl)sulfonyl]phenyl}cyclopropanecarboxamide] came in with a half-inhibitory concentration (IC50) of 78.3 nM. In addition, in data set [1], the half-life at 1 μM was determined as 38 min.

`Cc1cc([C@@H](C)NC(=O)[C@H]2C[C@]2(C)c2ccc(C(F)(F)F)cc2)c(F)cc1NS(C)(=O)=O` [Example 41, (1S,2S)-N-((1R)-1-{2-Fluoro-5-methyl-4-[(methylsulfonyl)amino]phenyl}ethyl)-2-methyl-2-[4-(trifluoromethyl)phenyl]cyclopropanecarboxamide] showed an IC50 against human VR1 receptors of 0.234 nM. This molecule also displayed a half-life at 1 μM in data set [1] of 21 min.

In the case of `Cc1nc([C@@H](C)NC(=O)[C@H]2C[C@]2(C)c2ccc(C(F)(F)F)cc2)ccc1NS(C)(=O)=O` [Example 14, (1S,2S)-2-Methyl-N-((1R)-1-{6-methyl-5-[(methylsulfonyl)amino]pyridin-2-yl}ethyl)-2-[4-(trifluoromethyl)phenyl]cyclopropanecarboxamide], 203 nM corresponded to half-maximal inhibition on human VR1 receptors (IC50). Moreover, the half-life at 1 μM in data set [1] is more than 120 min.

On to `Cc1cc([C@@H](C)NC(=O)C2CC2(C)c2cc(F)c(C(C)(C)C(F)(F)F)c(F)c2)ccc1NS(C)(=O)=O` (single isomer, unassigned) [Example 71], for which the midpoint of inhibition against human VR1 receptors, the IC50, lay at 0.48 nM. In data set [1], this molecule showed a half-life at 1 μM of 15.8 min.

For the molecule `Cc1cc([C@@H](C)NC(=O)[C@H]2C[C@]2(C)c2ccc(C(F)(F)F)c(F)c2)c(F)cc1NS(C)(=O)=O` [Example 42, N-((1R)-1-{2-Fluoro-5-methyl-4-[(methylsulfonyl)amino]phenyl}ethyl)-2-[3-fluoro-4-(trifluoromethyl)phenyl]-2-methylcyclopropanecarboxamide], the half-inhibitory concentration (IC50) on human VR1 receptors was determined as 0.713 nM. This molecule had a half-life at 1 μM in data set [1] of 19.7 min.

As to `C[C@@H](NC(=O)C1CC1(C)c1ccc(C(C)(C)C(F)(F)F)cc1)c1ccc(NS(C)(=O)=O)c(F)c1` (single isomer, unassigned) [Example 77], the IC50 against human VR1 receptors was 50.5 nM. The molecule also registered a half-life at 1 μM in data set [1] of 50 min.

In the case of `Cc1nc([C@@H](C)NC(=O)C2CC2(C)c2ccc(C(C)(C)C(F)(F)F)cc2)ccc1NS(C)(=O)=O` (stereo partly drawn) [Example 9, 2-Methyl-N-((1R)-1-{6-methyl-5-[(methylsulfonyl)amino]pyridin-2-yl}ethyl)-2-[4-(2,2,2-trifluoro-1,1-dimethylethyl)phenyl]cyclopropanecarboxamide], at human VR1 receptors, the midpoint of inhibition, the IC50, lay at 171 nM. Also, the half-life at 1 μM in data set [1] amounted to 42 min.

Take `C[C@@H](NC(=O)[C@H]1C[C@@H]1c1cc(F)c(C(C)(C)C)c(F)c1)c1ccc(NS(C)(=O)=O)c(F)c1` [Example 40, 2-(4-tert-Butyl-3,5-difluorophenyl)-N-((1R)-1-{3-fluoro-4-[(methylsulfonyl)amino]phenyl}ethyl)cyclopropanecarboxamide]: on human VR1 receptors, half-maximal inhibition (IC50) was put at 32.5 nM. In data set [1], this molecule returned a half-life at 1 μM of 35 min.

On human VR1 receptors, `C[C@@H](NC(=O)[C@H]1C[C@]1(C)c1cc(F)c(C(C)(C)C)c(F)c1)c1ccc(NS(C)(=O)=O)cc1` [Example 43, 2-(4-tert-Butyl-3,5-difluorophenyl)-2-methyl-N-((1R)-1-{4-[(methylsulfonyl)amino]phenyl}ethyl)cyclopropanecarboxamide] had an IC50 of 20.7 nM. Moreover, the half-life at 1 μM in data set [1] worked out at 41 min.

At human VR1 receptors, `Cc1cc(CNC(=O)C2CC2c2ccc(C(C)(C)C(F)(F)F)cc2)ccc1NS(C)(=O)=O` (centres unmarked) [Example 6, N-{3-Methyl-4-[(methylsulfonyl)amino]benzyl}-2-[4-(2,2,2-trifluoro-1,1-dimethylethyl)phenyl]cyclopropanecarboxamide] yielded an IC50 of 18.3 nM. In data set [1], this molecule showed a half-life at 1 μM of 18 min.

Source of the values: patent publication US7915448B2, “Substituted sulfonylaminoarylmethyl cyclopropanecarboxamide as VR1 receptor antagonists” (Pfizer Inc., priority 2005, dated 2011).
